# From patent US20230183239A1, “ECTONUCLEOTIDE PYROPHOSPHATASE-PHOSPHODIESTERASE 1 (ENPP-1) INHIBITORS AND USES THEREOF” (AbbVie Inc., priority 2017, published 2023)
# Columns and labels:
# Assay type in all cases: biochemical
# ENPP1 [1] = target: T1, ENPP1 (Homo sapiens, UniProt P22413); assay: Substrate selectivity ratio, inhibition of cGAMP hydrolysis versus ATP hydrolysis; conditions: ratio Ki AMP-pNP / Ki cGAMP
# T1 sequence (P22413 1-925): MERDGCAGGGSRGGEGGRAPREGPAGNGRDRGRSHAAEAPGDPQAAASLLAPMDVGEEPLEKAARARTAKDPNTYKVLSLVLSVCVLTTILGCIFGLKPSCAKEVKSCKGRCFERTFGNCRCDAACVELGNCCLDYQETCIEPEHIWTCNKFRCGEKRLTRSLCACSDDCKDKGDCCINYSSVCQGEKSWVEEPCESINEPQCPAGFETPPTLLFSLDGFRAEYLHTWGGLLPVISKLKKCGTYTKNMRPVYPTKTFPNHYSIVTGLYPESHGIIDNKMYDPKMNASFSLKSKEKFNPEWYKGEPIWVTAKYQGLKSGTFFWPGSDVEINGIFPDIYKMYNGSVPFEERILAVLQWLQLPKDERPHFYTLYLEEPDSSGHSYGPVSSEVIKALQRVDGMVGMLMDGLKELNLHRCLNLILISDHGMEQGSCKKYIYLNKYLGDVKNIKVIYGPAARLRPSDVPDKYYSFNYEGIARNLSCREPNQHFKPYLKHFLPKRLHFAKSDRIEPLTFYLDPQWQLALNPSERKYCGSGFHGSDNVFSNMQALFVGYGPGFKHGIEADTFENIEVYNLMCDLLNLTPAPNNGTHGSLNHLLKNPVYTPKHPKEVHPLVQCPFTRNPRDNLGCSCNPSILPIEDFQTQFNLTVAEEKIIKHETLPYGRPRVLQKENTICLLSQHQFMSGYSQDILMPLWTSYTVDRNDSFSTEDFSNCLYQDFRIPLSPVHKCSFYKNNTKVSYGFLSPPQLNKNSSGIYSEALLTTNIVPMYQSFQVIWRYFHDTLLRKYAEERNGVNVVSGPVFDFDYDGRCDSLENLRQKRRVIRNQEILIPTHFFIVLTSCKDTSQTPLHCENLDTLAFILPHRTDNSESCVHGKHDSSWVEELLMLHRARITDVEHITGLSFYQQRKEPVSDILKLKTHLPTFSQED
# Procedure: The selectivity ratios for inhibition of cGAMP hydrolysis versus ATP hydrolysis were then calculated as follows: […]
# ENPP1 [2] = target: T1, ENPP1; assay: Indirect quantitation of 2',3'-cGAMP hydrolysis (AMP-Glo Assay kit)
# ENPP1 [3] = target: T1, ENPP1; assay: ENPP1 enzyme assay with AMP-pNP substrate (hydrolysis of ATP analog)
# Procedure, shortened: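 Human recombinant ENPP1 (60 ng/well) with 300 µM AMP-pNP in 50 mM Tris-HCl pH 8.5, 250 mM NaCl, 0.5 mM CaCl2, 1 µM ZnCl2, 0.1% DMSO, 20 min at 37 °C.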
# [4] = cGAMP substrate, Ki from IC50 by Cheng-Prusoff, read-out: ENPP1 Inhibition -cGAMP: Ki
# [5] = AMP-pNP substrate (ATP analog), Ki from IC50 by Cheng-Prusoff, read-out: ENPP1 Inhibition _AMP-pNP: Ki
Structure (SMILES),Substrate Selectivity: Ki_AMP-pNP/Ki_cGAMP (ENPP1 [1]),Ki (ENPP1 [2]; [4]),Ki (ENPP1 [3]; [5]),Ki (ENPP1 [2]),Ki (ENPP1 [3])
"COc1ccc2c(-c3ccc(CNS(N)(=O)=O)cc3)ccnc2n1 [Example 63, N-(4-(7-methoxy-1,8-naphthyridin-4-yl)benzyl)sulfamide]",28.0,< 0.1 µM,< 0.1 µM,,
"COc1cc(F)c2c(-c3ccc(CNS(N)(=O)=O)cc3)ccnc2c1 [Example 394, N-(4-(5-fluoro-7-methoxyquinolin-4-yl)benzyl)sulfamide]",>95,< 0.1 µM,> 1 µM,,
"COc1ccc2c(N3CCc4c3ccc(NS(N)(=O)=O)c4F)ccnc2c1 [Example 379, N-(4-fluoro-1-(7-methoxyquinolin-4-yl)indolin-5-yl)sulfamide]",>41,< 0.1 µM,0.1 to 1 µM,,
"COc1ccc2c(N3CCC4(CC3)CCN(S(N)(=O)=O)C4)c(C#N)cnc2c1 [Example 248, 8-(3-cyano-7-methoxyquinolin-4-yl)-2,8-diazaspiro[4.5]decane-2-sulfonamide]",48.6,< 0.1 µM,< 0.1 µM,,
"COc1cc2ncnc(N3CCc4cc(NS(N)(=O)=O)ccc4C3)c2cc1OC [Example 137, N-(2-(6,7-dimethoxyquinazolin-4-yl)-1,2,3,4-tetrahydroisoquinolin-6-yl)sulfamide]",22.4,< 0.1 µM,0.1 to 1 µM,,
"COc1cc2ncnc(NCc3ccc(C(=O)NO)cc3)c2cc1OC [Example 196, 4-(((6,7-dimethoxyquinazolin-4-yl)amino)methyl)-N-hydroxybenzamide]",> 13.4,< 0.1 µM,> 1 µM,,
"COc1cc2ncnc(NC(C)c3ccc(NS(N)(=O)=O)cc3)c2cc1OC (stereo not drawn) [Example 140, N-(4-(1-((6,7-dimethoxyquinazolin-4-yl)amino)ethyl)phenyl) sulfamide]",25.1,< 0.1 µM,0.1 to 1 µM,,
"COc1cc2ncnc(NC(c3ccc(NS(N)(=O)=O)cc3)C3CC3)c2cc1OC (stereo not drawn) [Example 246, N-(4-(cyclopropyl((6,7-dimethoxyquinazolin-4-yl)amino)methyl)phenyl)sulfamide]",>87.7,< 0.1 µM,> 1 µM,,
"COc1ccc2c(Oc3ccc(NS(=O)(=O)NN)cc3)ccnc2c1 [Example 362, N-(4-((7-methoxyquinolin-4-yl)oxy)phenyl)hydrazinesulfonamide]",>216,0.1 to 1 µM,> 1 µM,,
"COc1cc2nccc(Nc3ccc(NS(N)(=O)=O)cc3)c2cc1OC [Example 134, N-(4-((6,7-dimethoxyquinolin-4-yl)amino)phenyl)sulfamide]",>69.1,< 0.1 µM,> 1 µM,,
"COc1cc2nccc(Oc3ccc(NS(=O)(=O)c4ccccc4)cc3)c2cc1OC [Example 86, N-(4-((6,7-dimethoxyquinolin-4-yl)oxy)phenyl)benzenesulfonamide]",>43.2,< 0.1 µM,0.1 to 1 µM,,
"COc1cc2c(N3CCC(CCNS(N)(=O)=O)CC3)ncnc2cc1Cl [Example 185, N-(2-(1-(7-chloro-6-methoxyquinazolin-4-yl)piperidin-4-yl)ethyl)sulfamide]",> 8.00,0.1 to 1 µM,> 1 µM,,
"COc1cc2nccc(Oc3ccc(NS(N)(=O)=O)cc3F)c2cc1OC [Example 201, N-(4-((6,7-dimethoxyquinolin-4-yl)oxy)-3-fluorophenyl)sulfamide]",> 19.9,< 0.1 µM,0.1 to 1 µM,,
"COc1cc2ncnc(N3CCC(CCNS(N)(=O)=O)CC3)c2cc1F [Example 206, N-(2-(1-(6-fluoro-7-methoxyquinazolin-4-yl)piperidin-4-yl)ethyl)sulfamide]",39.6,< 0.1 µM,0.1 to 1 µM,,
"COc1cc2nccc(Oc3ccc(NS(=O)(=O)C4CCC4)cc3)c2cc1OC [Example 261, N-(4-((6,7-dimethoxyquinolin-4-yl)oxy)phenyl)cyclobutanesulfonamide]",>12.9,0.1 to 1 µM,> 1 µM,,
"COc1ccc2ncc(C#N)c(-c3ccc(CN(C4CC4)S(N)(=O)=O)cc3)c2c1 [Example 294, N-(4-(3-cyano-6-methoxyquinolin-4-yl)benzyl)-N-cyclopropylsulfamide]",>119,0.1 to 1 µM,> 1 µM,,
"COc1cc2nccc(Oc3ccc(S(N)(=O)=O)cc3)c2cc1F [Example 74, 4-((6-fluoro-7-methoxyquinolin-4-yl)oxy)benzenesulfonamide]",22.5,< 0.1 µM,< 0.1 µM,,
"COc1cc2nccc(-c3ccc(CN(O)C=O)cc3)c2cc1OC [Example 284, N-(4-(6,7-dimethoxyquinolin-4-yl)benzyl)-N-hydroxyformamide]",28.6,< 0.1 µM,< 0.1 µM,,
"COc1cc2c(N3CCC(CCNS(N)(=O)=O)CC3)ncnc2cc1F [Example 184, N-(2-(1-(7-fluoro-6-methoxyquinazolin-4-yl)piperidin-4-yl)ethyl)sulfamide]",> 18.0,0.1 to 1 µM,> 1 µM,,
"COc1cc2ncnc(N3CCC(CCn4nnc(N)n4)CC3)c2cc1OC [Example 195, 2-(2-(1-(6,7-dimethoxyquinazolin-4-yl)piperidin-4-yl)ethyl)-2H-tetrazol-5-amine]",> 45.7,0.1 to 1 µM,> 1 µM,,
"COc1cc(F)c2c(N3CCc4cc(NS(N)(=O)=O)ccc43)ccnc2c1 [Example 412, N-(1-(5-fluoro-7-methoxyquinolin-4-yl)indolin-5-yl)sulfamide]",>271,0.1 to 1 µM,> 1 µM,,
"COc1ccc2c(N3CCC4(CCNC4)CC3)c(C#N)cnc2c1 [Example 275, 7-methoxy-4-(2,8-diazaspiro[4.5]decan-8-yl)quinoline-3-carbonitrile]",>7.7,0.1 to 1 µM,> 1 µM,,
"COc1cc2ncc(F)c(N3CCC(CCNS(N)(=O)=O)CC3)c2cc1OC [Example 66, N-(2-(1-(3-fluoro-6,7-dimethoxyquinolin-4-yl)piperidin-4-yl)ethyl)sulfamide]",35.1,< 0.1 µM,< 0.1 µM,,
"NS(=O)(=O)N1CCC2(CCN(c3ncnc4ccc(F)cc34)CC2)C1 [Example 288, 8-(6-fluoroquinazolin-4-yl)-2,8-diazaspiro[4.5]decane-2-sulfonamide]",27.9,< 0.1 µM,0.1 to 1 µM,,
"COc1ccc2c(NCc3ccc(NS(N)(=O)=O)cc3)ccnc2n1 [Example 417, N-(4-(((7-methoxy-1,8-naphthyridin-4-yl)amino)methyl)phenyl)sulfamide]",30,< 0.1 µM,< 0.1 µM,,
"COc1ccc2c(Oc3ccc(NS(N)(=O)=O)cc3)c(C(F)(F)F)cnc2c1 [Example 407, N-(4-((7-methoxy-3-(trifluoromethyl)quinolin-4-yl)oxy)phenyl)sulfamide]",>14,0.1 to 1 µM,> 1 µM,,
"COc1cc2ncnc(N3CCN(C(=O)CNS(N)(=O)=O)CC3)c2cc1OC [Example 52, N-(2-(4-(6,7-dimethoxyquinazolin-4-yl)piperazin-1-yl)-2-oxoethyl)sulfamide]",58.1,,,< 0.1 µM,0.1 to 1 µM
"COc1cc2nccc(Nc3ccc(CC(=O)NO)cc3)c2cc1OC [Example 207, 2-(4-((6,7-dimethoxyquinolin-4-yl)amino)phenyl)-N-hydroxyacetamide]",36.8,< 0.1 µM,< 0.1 µM,,
"COc1cc2ncnc(-c3ccc(CNS(N)(=O)=O)c(F)c3)c2cc1OC [Example 301, N-(4-(6,7-dimethoxyquinazolin-4-yl)-2-fluorobenzyl)sulfamide]",34.2,< 0.1 µM,0.1 to 1 µM,,
